Our source for the Activity, EC50 and MIC values is ChEMBL document CHEMBL4477198, “Metabolites from the Fungal Endophyte Aspergillus austroafricanus in Axenic Culture and in Fungal-Bacterial Mixed Cultures” (J Nat Prod, 2016).

Calls of active or inactive are those of the source. No cut-off for these calls is given here.

Experiment [1] deals with Mycobacterium tuberculosis. The experiment in a line: Antibacterial activity against Mycobacterium tuberculosis H37Rv by broth microdilution method. The experiment is classed as functional. On the technique in general: Dilution methods test growth across graded concentrations, often in twofold steps.
The test system of experiment [2] is L5178Y. The experiment in a line: Cytotoxicity against mouse L5178Y cells by MTT assay. It counts as functional, cell-based. On the technique in general: Tetrazolium dyes change colour on reduction, which living cells bring about.
Experiment [3] relates to Staphylococcus aureus. Kind of experiment: Antibacterial activity against Staphylococcus aureus ATCC 700699 by broth microdilution method. The experiment is classed as functional.
The subject of experiment [4] is Bacillus subtilis. Kind of experiment: Antibacterial activity against Bacillus subtilis 168 trpC2 by broth microdilution method. It counts as functional.

As for `CC(C)(O)CCC[C@](C)(O)c1ccc(C(=O)O)cc1`, the outcome in experiment [1] was inactive. On to `Cc1cc(O)cc(Oc2cc(C)c(C(N)=O)c(O)c2)c1`, for which the outcome in experiment [1] was inactive. With `CC(C)[C@@H](C)/C=C/[C@@H](C)[C@H]1CC[C@H]2C3=CC=C4C[C@@H](O)CC[C@]4(C)[C@H]3CC[C@]12C` [ERGOSTEROL], the EC50 (as a rule, the concentration that produces a half-maximal response) in experiment [2] turned out to be 12.6 µM. Further, the outcome in experiment [1] was inactive. Take `COc1c(N2C[C@@H]3CCCN[C@@H]3C2)c(F)cc2c(=O)c(C(=O)O)cn(C3CC3)c12` [MOXIFLOXACIN]: in experiment [3], the MIC (commonly the lowest concentration that inhibits growth of the organism) stood at 1.56 µg/mL. For `CC1(C)CCC[C@](C)(c2ccc(C(=O)O)cc2O)O1`, the result in experiment [1] was inactive. Still for that read-out and setting: under `COC(=O)c1c(O)ccc2oc3cc(CO)cc(O)c3c(=O)c12` stands “inactive”. Turning to `Cc1cc(O)cc(Oc2cc(C)cc(O)c2)c1` [DIORCINOL], the outcome in experiment [1] was inactive. For the same molecule, in experiment [4], the MIC came to 34.8 µM. For the molecule `Cc1cc(O)c(Oc2cc(C)cc(O)c2O)c(O)c1`, the result in experiment [1] was inactive. In addition, in experiment [3], the MIC was determined as 25 µM. In the case of `COc1c(O)c(O)c(O)c2oc3c(Oc4c(O)cc(C)c5c(=O)c6c(O)cc(CO)cc6oc45)c(O)cc(C)c3c(=O)c12`, the result in experiment [1] was inactive. For `Cc1cc(O)c(O)c(Oc2cc(C)cc(O)c2O)c1`, the result in experiment [1] was inactive. This molecule also yielded an MIC in experiment [3] of 25 µM.

On to `O=c1cc(CO)c(O)co1`, for which the result in experiment [1] was inactive. As for `O=C(O)c1cn(C2CC2)c2cc(N3CCNCC3)c(F)cc2c1=O` [CIPROFLOXACIN], in experiment [4], the MIC amounted to 0.008 µg/mL. Turning to `C=CC(C)(C)[C@@]12C=C(OC)C(=O)N3/C(=C/c4c[nH]cn4)C(=O)N[C@]31N(OC)c1ccccc12`, in experiment [1], the outcome was inactive.
